Values quoted from earlier work as cited in publication PMC12154426, “TPP-Based Nanovesicles Kill MDR Neuroblastoma Cells and Induce Moderate ROS Increase, While Exerting Low Toxicity Towards Primary Cell Cultures: An In Vitro Study” (International Journal of Molecular Sciences, 2025).
Like-named read-outs stand apart in the source and are kept apart here.

Tests used:
Hela = tested on: Hela; set-up: method as in PMID 36084362; settings: 24 h exposure, cited from earlier work
[1] = set-up: method as in PMID 36084362; settings: MFC-7, 24 h exposure, cited from earlier work
A-375 cancer cells = tested on: A-375 cancer cells; set-up: method as in PMID 28151482; settings: 24 h exposure; 30 µM vemurafenib, 50 µM TRAM-34, or their combination; cited from earlier work

| Compound | IC50 (Hela; PDT/SDT) | IC50 (Hela; PDT) | IC50 (Hela; SDT) | IC50 ([1]; PDT/SDT) | IC50 ([1]; PDT) | IC50 ([1]; SDT) | ROS increase with respect to the control (A-375 cancer cells) |
| --- | --- | --- | --- | --- | --- | --- | --- |
| 2,9,16,23-tetrakis(N-(N-butyl-4-triphenyl-phosphonium)-pyridine-4-yloxy) Zn(II) Pc [compound 3] | 12.7 µM | 21.8 µM | 14.3 µM | 13.2 µM | 43.3 µM | 18.2 µM | – |
| 2,9,16,23-tetrakis-(N-(N-butyl-4-triphenyl-phosphonium)-morpholino) Zn(II) Pc [compound 4] | 14.4 µM | 25.6 µM | 17.2 µM | 15.5 µM | 45 µM | 20.5 µM | – |
| Clc1ccccc1C(c1ccccc1)(c1ccccc1)n1cccn1 [TRAM-34] | – | – | – | – | – | – | ~30% |
| CCCS(=O)(=O)Nc1ccc(F)c(C(=O)c2c[nH]c3ncc(-c4ccc(Cl)cc4)cc23)c1F [vemurafenib] | – | – | – | – | – | – | about 38% |
